Measurements taken from PubChem BioAssay (NCI).
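Results reflect a 48-hour exposure of cells in 96-well plates to compound at five concentrations. GI50 = concentration required for 50% inhibition of growth. TGI marks complete inhibition of growth.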

Experiments:
Test in all cases: NCI anticancer screen, dose series, 48 h
[1] = system: A498 renal
[2] = system: CCRF-CEM leukemia
[3] = system: COLO 205 colon
[4] = system: EKVX NSCLC
[5] = system: RPMI-8226 leukemia
[6] = system: SF-268 CNS
[7] = system: SNB-75 CNS
[8] = system: UACC-257 melanoma
[9] = system: MCF7 breast
[10] = system: MDA-MB-231 breast

SMILES | TGI [1] [µM] | TGI [2] [µM] | TGI [3] [µM] | TGI [4] [µM] | TGI [5] [µM] | TGI [6] [µM] | TGI [7] [µM] | TGI [8] [µM] | TGI [9] [µM] | TGI [10] [µM] | GI50 [3] [µM] | GI50 [4] [µM] | GI50 [5] [µM] | GI50 [6] [µM] | GI50 [7] [µM] | GI50 [1] [µM] | GI50 [2] [µM] | GI50 [9] [µM] | GI50 [10] [µM] | GI50 [8] [µM]
N#CN1CC[C@@H]2CC3(CCC2C1)OCCO3 (some centres undefined) | > 100 | > 100 | > 100 | > 100 | > 100 | > 100 | > 100 | > 100 | – | – | – | – | – | – | – | – | – | – | – | –
Cn1cc(-c2ccc3c4ccccc4n(C)c3c2)c2ccccc21 | > 100 | > 100 | > 100 | > 100 | > 100 | > 100 | > 100 | > 100 | – | – | – | – | – | – | – | – | – | – | – | –
CC(=O)/C=C1\CC(=O)N(C)c2ccccc2N1 | – | > 100 | > 100 | > 100 | – | > 100 | 0.953 | – | – | – | – | – | – | – | – | – | – | – | – | –
CCCCC[C@@H]1CCCC2NC(CCCCCO[Si](c3ccccc3)(c3ccccc3)C(C)(C)C)CCC21 (some centres undefined) | 31.9 | 26.7 | – | 34.3 | 22.2 | 38.2 | 30 | 29 | – | – | – | – | – | – | – | – | – | – | – | –
O=C1c2ccccc2C(=O)N1c1ccc(Cc2ccc(N3C(=O)c4ccccc4C3=O)cc2)cc1 | > 100 | – | > 100 | > 100 | > 100 | > 100 | > 100 | > 100 | > 100 | > 100 | – | – | – | – | – | – | – | – | – | –
N.N.N.N.N#N.N#N.[Cl-].[Os+6] | – | – | > 100 | > 100 | > 100 | > 100 | > 100 | – | – | – | > 100 | > 100 | > 100 | > 100 | > 100 | – | – | – | – | –
O=C(n1c2ccccc2c2n[nH]c(=S)nc21)C(F)(F)F | – | > 100 | > 100 | > 100 | – | > 100 | > 100 | – | – | – | – | – | – | – | – | – | – | – | – | –
CNc1c2ccccc2nc2occ(Cl)c12 | 41.7 | 84.5 | > 100 | – | 39.8 | > 100 | – | – | > 100 | – | 30.6 | – | 16 | 26.8 | – | 11.9 | 27.1 | 32.3 | – | –
CC(C)(C)c1cc(C2c3cc4c(cc3OC(O)(CO)C2C(=O)O)OCO4)cc(C(C)(C)C)c1O (centres undefined) (tested in a mixture with another compound) | – | 21.9 | 37.8 | 50.5 | 22.7 | – | 22.8 | 26.4 | – | – | – | – | – | – | – | – | – | – | – | –
Cc1nc2ccccc2c(=O)n1/N=C(\N=Nc1ccc(Cl)cc1)c1cccc(-c2ccco2)c1 | > 100 | 88.2 | 89.4 | > 100 | > 100 | > 100 | – | – | – | – | – | – | – | – | – | – | – | – | – | –
O=C(CC1(O)C(=O)Nc2ccccc21)c1ccc(Cl)c(Cl)c1 (centres undefined) | > 100 | > 100 | > 100 | > 100 | > 100 | > 100 | > 100 | – | – | – | – | – | – | – | – | – | – | – | – | –
CCCC(=O)Oc1ccc(/C(=C(\C)c2ccc(Cl)cc2)c2ccc(OCCN(CC)CC)cc2)cc1 | – | 15.5 | 3.66 | 21 | 9.02 | 19 | 30.2 | 4.18 | 3.47 | 5.13 | 1.82 | 7.2 | 2.92 | 3.81 | 12.8 | – | 4.18 | 0.117 | 2.42 | 2.02
C=C1C(=O)OC2CC1C(OC(=O)/C=C/c1ccccc1)C/C(C)=C/CC/C(C)=C/CCC2(C)O (centres undefined) | 3.68 | – | > 19.9 | 3.66 | – | 3.81 | 2.87 | 3.79 | 1.96 | 5.39 | – | – | – | – | – | – | – | – | – | –
O=C(O)CCC(O)=C1S(=O)(=O)OCCOS1(=O)=O | > 100 | – | > 100 | > 100 | > 100 | > 100 | > 100 | > 100 | > 100 | > 100 | – | – | – | – | – | – | – | – | – | –
Cc1cc(NS(=O)(=O)c2ccc(NC(=O)c3ccc(Cl)c4c(Nc5ccc(S(=O)(=O)Nc6cc(C)on6)cc5)c5ccccc5nc34)cc2)no1 | 47.4 | 51.8 | 41.4 | 64.9 | 72.7 | 42.3 | 24.5 | 43.5 | – | – | – | – | – | – | – | – | – | – | – | –
CC1(Cl)C(=O)NC(=O)N([C@H]2C[C@H](O)[C@@H](CO)O2)C1N=[N+]=[N-] (some centres undefined) | > 100 | > 100 | > 100 | > 100 | > 100 | > 100 | > 100 | > 100 | – | – | – | – | – | – | – | – | – | – | – | –
Cc1nc(-n2nc(-c3ccccc3)cc2-c2ccccc2)sc1C(=O)CC(=O)C(=O)Nc1ccc(Cl)c(Cl)c1 | > 100 | > 100 | > 100 | > 100 | > 100 | > 100 | > 100 | > 100 | – | – | – | – | – | – | – | – | – | – | – | –
COc1ccc2nc3cc(Cl)ccc3c(Sc3ccc(N)cc3)c2c1 | 76.3 | 18.7 | 23.3 | 25.4 | – | 34.4 | 23.2 | 26.1 | – | – | – | – | – | – | – | – | – | – | – | –
CCN(Cc1ccc(Cl)c(Cl)c1)c1ccc2nc(N)nc(N)c2c1C | 3.63 | 6.3 | 1.69 | 2.82 | 2.83 | 1.69 | 2.01 | 2.72 | 1.52 | – | 0.148 | – | 0.0968 | 0.0351 | 0.0945 | 0.785 | 0.0252 | 0.0189 | – | 1.25
Cn1c(=O)nc2n(-c3ccc(Br)cc3)c3ccccc3nc-2c1=O | 26.9 | 19.9 | 11.1 | 7.3 | 28.8 | 31 | 19.4 | 6.79 | – | – | – | – | – | – | – | – | – | – | – | –
Cc1c(C)c2cc3c(=O)c(CCl)coc3c(C)c2oc1=O | > 100 | > 100 | > 100 | > 100 | > 100 | > 100 | > 100 | > 100 | – | – | – | – | – | – | – | – | – | – | – | –
COC(=O)NC1(NC(=O)OC)NC(=O)c2ccccc2N1 | > 100 | > 100 | > 100 | > 100 | – | > 100 | > 100 | > 100 | > 100 | > 100 | – | – | – | – | – | – | – | – | – | –
O=C1NC(c2ccccc2)(c2ccccc2)C(=O)N1CCCCCCN1C(=O)NC(c2ccccc2)(c2ccccc2)C1=O | > 100 | > 100 | > 100 | > 100 | > 100 | > 100 | 19.6 | > 100 | – | – | – | – | – | – | – | – | – | – | – | –
